US20240409536A1, “COMPOUNDS AND METHODS FOR MODULATING SPLICING” (REMIX THERAPEUTICS INC., priority 2021, published 2024)

What was measured:
[1] = tested on: MYB mRNA; test: Splicing RT-qPCR assay, MYB canonical (CJ) and alternative (AJ) junction mRNA; type: cell-based; settings: Homo sapiens, A673 or K562 cells, 24 hours; for IC50: decrease in canonical junction mRNA; for AC50: increase in alternative junction mRNA
Method in brief: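 Canonical and alternative junction mRNAs measured by cell-lysate one-step RT-qPCR, normalized to PPIA in A673 or GAPDH/GUSB in K562. Cells received compound for 24 h at 37 °C, 5% CO2, 11-point 3-fold series from 10 uM final top dose, DMSO at most 0.25%.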

[2] = tested on: MYB mRNA; test: Gene panel canonical junction qPCR assay, MYB CJ mRNA decrease; type: cell-based, human; settings: Homo sapiens, canonical junction qPCR, read-out: MYB IC50 (decrease in CJ mRNA levels)
Method in brief: (§1)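 IC50 values describe loss of canonical-junction transcript, fitted by 4-parameter logistic to percent response derived from fixed ΔCt windows. Read-out: RT-qPCR on lysates of compound-treated K562 or A673 cells, probes overlapping the exon junction, ΔΔCt versus housekeeping gene and DMSO control.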

[3] = tested on: HTT mRNA; test: Gene panel canonical junction qPCR assay, HTT CJ mRNA decrease; type: cell-based, human; settings: Homo sapiens, canonical junction qPCR, read-out: HTT IC50 (decrease in CJ mRNA levels)
Method in brief: as §1

Row | SMILES | IC50 [1] | IC50 [2] | IC50 [3] | AC50 [1]
1 | CN[C@H]1CCN(c2ccc(C(=O)Nc3cc(F)c4nc(C)cn4c3)c3nnccc23)C1 [Compound 239, (S)—N-(8-fluoro-2-methylimidazo[1,2-a]pyridin-6-yl)-5-(3-(methylamino)pyrrolidin-1-yl)cinnoline-8-carboxamide] | < 100 nM | < 100 nM | 1000 to 10000 nM | 100 to 1000 nM
2 | Cc1cn2cc(NC(=O)c3ccc(N4CCC(NC5CC5)CC4)c4nccnc34)cc(F)c2n1 [Compound 258, 8-(4-(cyclopropylamino)piperidin-1-yl)-N-(8-fluoro-2-methylimidazo[1,2-a]pyridin-6-yl)quinoxaline-5-carboxamide] | 100 to 1000 nM | 100 to 1000 nM | 100 to 1000 nM | 100 to 1000 nM
3 | CNC1CCN(c2ccc(C(=O)Nc3cc(F)c4nc(C)cn4c3)c3nc(OCCOC)ccc23)C1 (stereo not drawn) [Compound 234] | 100 to 1000 nM | 100 to 1000 nM | 1000 to 10000 nM | 100 to 1000 nM
4 | Cc1cn2cc(NC(=O)c3ccc(N4CC(C)NC(C)C4)c4nc(C)c(C)nc34)cc(F)c2n1 (stereo not drawn) [Compound 257] | 100 to 1000 nM | 100 to 1000 nM | 1000 to 10000 nM | 1000 to 10000 nM
5 | Cc1cn2cc(NC(=O)c3ccc(N4CCN[C@H](C5CC5)C4)c4nccnc34)cc(F)c2n1 [Compound 253, 8-[(3R)-3-cyclopropylpiperazin-1-yl]-N-{8-fluoro-2-methylimidazo[1,2-a]pyridin-6-yl}quinoxaline-5-carboxamide] | < 100 nM | < 100 nM | 1000 to 10000 nM | < 100 nM
6 | Cc1cn2cc(NC(=O)c3ccc(N4C[C@@H](C)N[C@@H](C5CC5)C4)c4nccnc34)cc(F)c2n1 [Compound 266, 8-((3S,5R)-3-cyclopropyl-5-methylpiperazin-1-yl)-N-(8-fluoro-2-methylimidazo[1,2-a]pyridin-6-yl)quinoxaline-5-carboxamide] | < 100 nM | < 100 nM | 1000 to 10000 nM | < 100 nM
7 | Cc1cn2cc(NC(=O)c3ccc(N4CCN[C@@H](C(C)C)C4)c4nccnc34)cc(F)c2n1 [Compound 250, N-{8-fluoro-2-methylimidazo[1,2-a]pyridin-6-yl}-8-[(3S)-3-isopropylpiperazin-1-yl]quinoxaline-5-carboxamide] | 100 to 1000 nM | 100 to 1000 nM | > 10000 nM | 1000 to 10000 nM

Now from value to compound, other results behind:

Row | IC50 [1] | IC50 [2] | IC50 [3] | SMILES | AC50 [1]
8 | 100 to 1000 nM | 100 to 1000 nM | 1000 to 10000 nM | Cc1cn2cc(NC(=O)c3ccc(N4CCNCC4)c4nncnc34)cc(F)c2n1 [Compound 345] | 100 to 1000 nM
9 | 1000 to 10000 nM | 1000 to 10000 nM | > 10000 nM | C[C@@H]1CN(c2ccc(C(=O)Nc3ccc4nc(N(C)C)oc4c3)c3nccnc23)C[C@H](C)N1 [Compound 290] | > 10000 nM
10 | < 100 nM | < 100 nM | 1000 to 10000 nM | Cc1cn2cc(NC(=O)c3ccc(N4C[C@H](C)N[C@@H](C)C4)c4nccnc34)cc(F)c2n1 [Compound 313] | < 100 nM
11 | 100 to 1000 nM | 100 to 1000 nM | 1000 to 10000 nM | Cc1cn2cc(NC(=O)c3ccc(N4CCNC5(CC5)C4)c4cccnc34)cc(F)c2n1 [Compound 341] | 100 to 1000 nM
12 | < 100 nM | < 100 nM | 1000 to 10000 nM | Cc1cn2cc(NC(=O)c3ccc(N4C[C@@H](C)N[C@@H](C)C4)c4nccnc34)cc(Cl)c2n1 [Compound 304] | < 100 nM
13 | 100 to 1000 nM | 100 to 1000 nM | > 10000 nM | Cc1cn2cc(NC(=O)c3ccc(N4C[C@@H](C)N(O)[C@@H](C)C4)c4nccnc34)cc(F)c2n1 [Compound 355] | 100 to 1000 nM
14 | 100 to 1000 nM | 100 to 1000 nM | 1000 to 10000 nM | Cc1cn2cc(NC(=O)c3ccc(N4CCN(CCO)C5(CC5)C4)c4nccnc34)cc(F)c2n1 [Compound 369] | 100 to 1000 nM
15 | > 10000 nM | > 10000 nM | > 10000 nM | Cc1ccc2cc(NC(=O)c3ccc(N4C[C@@H](C)N[C@@H](C)C4)c4nccnc34)cc(F)c2n1 [Compound 353] | > 10000 nM
